From US8148516B2, “Flowcell systems for single molecule detection” (Pacific Biosciences of California, Inc., priority 2000, dated 2012)

Assay: Capillary electrophoresis of dTTP and dTDP: effect of Mg++ on electrophoretic mobility
Format: physicochemical
Conditions: 50 mM Tris-acetate pH 8.0, 60 mM KCl; for effect of Mg++ on electrophoretic mobility: MgCl2 3-40 mM
Method: The effect of Mg^++ on the electrophoretic mobility of dTTP and dTDP was determined by capillary electrophoresis. Electrophoresis buffer contained 50 mM Tris-acetate pH 8.0, 60 mM KCl, and various concentrations of MgCl2 (3, 4, 6, 10, 15, 25 and 40 mM). The sample contained 0.5 mM nucleotide (dTTP or dTDP; Sigma) and 0.8 mM mesityl oxide (electroneutral marker; Sigma). The samples were analyzed by capillary electrophoresis (Hewlett Packard) using an uncoated fused silica capillary (40 cm from injection end to detection zone). Voltage was 8.5 kV and peaks were monitored by optical absorbance at 260 nm. Electrokinetic velocity of each sample peak was calculated by dividing distance (40 cm) by elution time. Electroosmotic flow (EOF) of the bulk buffer is taken as the velocity of the mesityl oxide marker. Nucleotide electrophoretic velocity is the nucleotide electrokinetic velocity minus EOF. Nucleotide electrophoretic velocities are plotted as a function of Mg^++ concentration (FIG. 11A).

Structure (SMILES)	effect of Mg++ on electrophoretic mobility	electrophoretic mobility compared with dTDP (3-40 mM MgCl2, 8.5 kV)
Cc1cn([C@H]2C[C@H](O)[C@@H](COP(=O)(O)OP(=O)(O)O)O2)c(=O)[nH]c1=O [dTDP]	from more negative to less negative	
Cc1cn([C@H]2C[C@H](O)[C@@H](COP(=O)(O)OP(=O)(O)OP(=O)(O)O)O2)c(=O)[nH]c1=O [dTTP]	from more negative to less negative	more negative electrophoretic mobility than the dTDP
